# In patent publication US5840893A, “Compounds for treating infectious diseases” (priority 1996, dated 1998):
# Key:
# HIV-1ADA = experiment: RT activity in supernatant of HIV-1ADA-infected monocytes; type: cell-based, HIV-1ADA in primary human monocytes
# Procedure: The cultures were treated with none or between 10^-12 and 10^-6M Compound No. 2 and, simultaneously with the beginning of treatment, the cells were exposed to the monocyte-tropic strain HIV-1ADA about 0.01 TCID50 /cell (1 ng p24/10^6 cells) for 2 hours. Samples were withdrawn at days 3, 6, 10, 14 and 17 after infection and assayed for reverse transcription activity.
# FIGS. 2B and 2C show the effects of various concentrations of Compound No. 2 on the production of HIV-1 in monocyte cultures not supplemented with M-CSF. In these studies MOI, as determined by concentration of p24 antigen was; FIG. 2B (8 ng/10^6 cells) and FIG. 2C (0.8 ng/10^6 cells).
# Primary human monocytes were obtained from peripheral blood by Ficoll-Hypaque centrifugation and adherence to plastic as described previously. Gartner S. P., et al., 1986, Science 233:215. Briefly, after Ficoll-Hypaque (Pharmacia) separation, PBMCs were washed 4 times with DMEM (the last wash was done at 800 rpm to remove platelets) and resuspended in monocyte culture medium [DMEM supplemented with 1 mM glutamine, 10% heat-inactivated human serum, 1% penicillin+streptomycin mixture (Sigma)] at a density of 6×10^6 cells/ml. Cells were seeded in 24-well plates (1 ml per well) and incubated for 2 h at 37° C., 5% CO2. Following incubation, cells were washed 3 times with DMEM to remove non-adherent cells and incubation was continued in monocyte culture medium supplemented with 250 U/ml human M-CSF (Sigma). Cells were allowed to mature for 7 days prior to infection with the monocyte-tropic strain, HIV-1ADA. Nuovo, G. J., et al., 1992, Diagn. Mol. Pathol. 1:98. Two hours after infection, cells were washed with medium and cultured in RPMI supplemented with 10% human serum. […]
# Macrophage-tropic strain HIV-1ADA was amplified in primary human monocytes and concentrated to produce stock with TCID50 of about 10^5 /ml. The concentration of HIV-1 was determined by immunoassay of viral p24, concentration; using a conversion factor of […].
# (§1) For the reverse transcriptase (RT) assay, 10 μl of culture supernatant was added to 40 μl of reaction mixture (final composition was 50 mM Tris-HCl, pH 7.8; 20 mM KCl; 5 mM MgCl2; 1 mM DTT; 0.1% Triton X-100; 0.2 OD/ml polyA; 0.2 OD/ml oligo(dT)12-18; and 40 μCi/ml ^3 H-dTTP (76 Ci/mmol, DuPont) and incubated 2 hr at 37° C. 5 μl of the reaction mixture was then spotted onto the DE 81 (Whatman) paper. Paper was air dried and washed 5 times with 5% Na2 HPO4, followed by rinsing with distilled water. After air drying, paper was put on a Flexi Filter plate (Packard), covered with scintillation fluid and counted in a Top Count Microplate Counter (Packard). Results are expressed as counts per minute in 1 ml of supernatant (cpm/ml).
# HIV-1 = experiment: AZT and Compound No. 2 in combination on HIV-1 infected monocyte cultures (RT activity); type: cell-based, HIV-1 in human monocyte cultures; details: for RT activity: 100 nM Compound No. 2, AZT 0
# Procedure: Primary human monocytes were obtained from peripheral blood by Ficoll-Hypaque centrifugation and adherence to plastic as described previously. Gartner S. P., et al., 1986, Science 233:215. Briefly, after Ficoll-Hypaque (Pharmacia) separation, PBMCs were washed 4 times with DMEM (the last wash was done at 800 rpm to remove platelets) and resuspended in monocyte culture medium [DMEM supplemented with 1 mM glutamine, 10% heat-inactivated human serum, 1% penicillin+streptomycin mixture (Sigma)] at a density of 6×10^6 cells/ml. Cells were seeded in 24-well plates (1 ml per well) and incubated for 2 h at 37° C., 5% CO2. Following incubation, cells were washed 3 times with DMEM to remove non-adherent cells and incubation was continued in monocyte culture medium supplemented with 250 U/ml human M-CSF (Sigma). Cells were allowed to mature for 7 days prior to infection with the monocyte-tropic strain, HIV-1ADA. Nuovo, G. J., et al., 1992, Diagn. Mol. Pathol. 1:98. Two hours after infection, cells were washed with medium and cultured in RPMI supplemented with 10% human serum. In experiments where PCR analysis was performed, virus was pretreated with RNAse-free DNAse (Boehinger-Mannheim)for 2 h at room temperature and then filtered though a 0.2 μm pore nitrocellulose filter prior to infection.
# as §1
# In view of these premises, the effects on HIV-1 replication in human monocyte cultures of the various concentrations of AZT, alone or in combination with 100 nM Compound No. 2, were tested using the protocols of Sections 6.2.1 and 6.2.2. Drugs were added to the monocyte cultures together with HIV-1 at about 10^5 TCID/ml. The concentration of drugs was maintained on refeeding. HIV-1 replication was assessed by assay of the supernatant for reverse transcriptase activity. The results are expressed as mean±std. dev. (cpmx10^-3) in Table V.
# [1] = Table IV; measured in a 25 gr mouse
# Procedure: Standard addition curves for each test compound were constructed by adding increased amounts of drug to mouse or human A^+ plasma (Long Island Blood Services; Melville, N.Y.). […] The eluted sample was reduced to dryness in a rotary evaporator and resuspended in 1.0 ml Buffer A.
# Female ND4 Swiss Webster mice (21-24 g) were obtained from Harlan Sprague Dawley (Indianapolis, Ind.) and randomly placed in groups of five in cages with free access to food and water. […] The other CNI compounds were administered intraperitoneally or by oral gavage as a solution in water titrated with sufficient HCl to dissolve the drug. At various time points, ranging from 5 min to 4 days, a single group of animals was euthanized by carbon dioxide inhalation and bled by cardiac puncture using heparin as an anticoagulant. The blood from the five mice in the group was pooled and centrifuged at 14000×g for 10 min. The volume of plasma was measured, and equal volume of Buffer A added, and the mixture extracted and analyzed as described above, except that the dried eluates were resuspended in 200 μl Buffer A and 100 μl was injected onto the high performance liquid chromatography (HPLC) system.
# The area under the plasma concentration-time curve (AUC) was determined, and bioavailability was measured as AUCoral /AUCi.p.. […] The volume of distribution (VD) was calculated as dose/B, and the total clearance rate (Cltot) calculated as β*VD. Cmax and tmax are the maximal plasma concentration and time of this measurement, respectively.
smiles,measurement,setting,value
"CC(=O)c1cc(Nc2cc(C)[n+](C)c(N)n2)cc(C(C)=O)c1.[I-] [Compound No. 2, 2-amino-4-(3,5-diacetylphenyl)amino-1,6-dimethylpyrimidinium iodide]",IC50,"HIV-1ADA; Homo sapiens, Monocyte, FIG. 2A, M-CSF, 1 ng p24/10^6 cells",0.1 to 1 nM
same,IC50,"HIV-1ADA; Homo sapiens, Monocyte, FIG. 2B, without M-CSF, 8 ng p24/10^6 cells",~10 nM
same,IC50,"HIV-1ADA; Homo sapiens, Monocyte, FIG. 2C, without M-CSF, 0.8 ng p24/10^6 cells",< 1 nM
same,IC50,"HIV-1ADA; Human immunodeficiency virus 1, Monocyte, FIG. 2, HIV-1 replication in monocytes, estimated",0.1 to 1 nM
same,inhibition at 0.1 µM,"HIV-1; Human immunodeficiency virus 1, Monocyte, 264 h, day-11, 100 nM Compound No. 2 alone, read-out: reduction in RT activity",~60%
same,RT activity,HIV-1; day-7,0.37 ± 0.07 cpmx10^-3
same,RT activity,HIV-1; day-11,0.72 ± 0.30 cpmx10^-3
same,Clearance,[1],35.35 mL/min
